Consider 20 molecules from patent US9850225B2, “Compounds useful as immunomodulators” (BRISTOL-MYERS SQUIBB COMPANY, priority 2014, dated 2017).

Sequence of PD-1/PD-L1 interaction (PD-1-Ig / PD-L1-His) (Q9NZQ7 other isoform, or with tags, fused parts or gaps): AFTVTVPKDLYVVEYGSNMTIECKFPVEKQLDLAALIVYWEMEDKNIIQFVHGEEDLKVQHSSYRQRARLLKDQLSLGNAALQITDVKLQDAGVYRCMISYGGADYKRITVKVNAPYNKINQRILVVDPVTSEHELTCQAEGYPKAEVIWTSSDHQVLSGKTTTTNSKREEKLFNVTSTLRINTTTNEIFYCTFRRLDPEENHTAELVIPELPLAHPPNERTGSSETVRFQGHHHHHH

For the first test, the target named is PD-1/PD-L1 interaction (PD-1-Ig / PD-L1-His) (Homo sapiens (Human), UniProt Q9NZQ7). Briefly: PD-1/PD-L1 Homogenous Time-Resolved Fluorescence (HTRF) binding assay. The conditions noted are these: PD-1/PD-L1 HTRF binding assay; numeric value; read-out: Range or IC50. The essentials:
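Human PD-L1-His (10 nM final) was pre-incubated with inhibitor for 15 min, then PD-1-Ig (20 nM final) was added for a further 15 min in dPBS with 0.1% BSA and 0.05% Tween-20. Binding was detected by HTRF using Eu-cryptate anti-Ig (1 nM) and APC anti-His (20 nM).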
Take `Cc1c(COc2cc(OCc3cccc(C#N)c3)c(CNC(C(=O)O)C(C)(C)O)cc2Cl)cccc1-c1ccc2c(c1)OCCO2` (centres unmarked) [Example 1210, 2-((5-chloro-2-((3-cyanobenzyl)oxy)-4-((3-(2,3-dihydrobenzo[b][1,4]dioxin-6-yl)-2-methylbenzyl)oxy)benzyl)amino)-3-hydroxy-3-methylbutanoic acid]: the IC50 (commonly the point on the concentration scale where inhibition reaches its midpoint) came to 12.7 nM.

The same test, now with this note: PD-1/PD-L1 HTRF binding assay; value given as range class; read-out: Range or IC50.
In the case of `Cc1c(COc2cc(OCc3cccc(C#N)c3)c(CN(C)[C@@H](CO)C(=O)O)cc2Cl)cccc1-c1ccc2c(c1)OCCO2` [Example 1183, (S)-2-((5-chloro-2-((3-cyanobenzyl)oxy)-4-((3-(2,3-dihydrobenzo[b][1,4]dioxin-6-yl)-2-methylbenzyl)oxy)benzyl)(methyl)amino)-3-hydroxypropanoic acid], the IC50 was 0.6 to 10 nM.

On to `Cc1c(COc2ccc(CN[C@H](CO)C(=O)O)c(OCc3ccc(F)c(C#N)c3)c2)cccc1-c1ccccc1` [Example 1332, (R)-2-((2-((3-cyano-4-fluorobenzyl)oxy)-4-((2-methyl-[1,1′-biphenyl]-3-yl)methoxy)benzyl)amino)-3-hydroxypropanoic acid], for which the IC50 lay in the range of 0.6 to 10 nM.

As for `Cc1c(COc2cc(OCc3cccc(C#N)c3)c(CN[C@@H](Cc3cncn3C)C(=O)O)cc2Cl)cccc1-c1ccc2c(c1)OCCO2` [Example 1207, (S)-2-((5-chloro-2-((3-cyanobenzyl)oxy)-4-((3-(2,3-dihydrobenzo[b][1,4]dioxin-6-yl)-2-methylbenzyl)oxy)benzyl)amino)-3-(1-methyl-1H-imidazol-5-yl)propanoic acid], the IC50 was 10 to 100 nM.

As to `Cc1c(COc2ccc(CN[C@H](CO)CC(=O)O)c(OCc3cccc(C#N)c3)c2)cccc1-c1ccc2c(c1)OCCO2` [Example 1126, (S)-3-((2-((3-cyanobenzyl)oxy)-4-((3-(2,3-dihydrobenzo[b][1,4]dioxin-6-yl)-2-methylbenzyl)oxy)benzyl)amino)-4-hydroxybutanoic acid], the IC50 was in the range of 0.6 to 10 nM.

For `CC(=O)NCCNCc1ccc(OCc2cccc(-c3ccccc3)c2C)cc1OCc1ccccc1OC(F)F` [Example 1085, N-(2-((2-((2-(difluoromethoxy)benzyl)oxy)-4-((2-methyl-[1,1′-biphenyl]-3-yl)methoxy)benzyl)amino)ethyl)acetamide], the IC50 lay within 100 to 20000 nM.

With `Cc1c(COc2ccc(CN[C@@H](C(=O)O)[C@@H](C)O)c(OCc3cccc(C#N)c3)c2)cccc1-c1ccccc1` [Example 1013, (2R,3R)-2-((2-((3-cyanobenzyl)oxy)-4-((2-methyl-[1,1′-biphenyl]-3-yl)methoxy)benzyl)amino)-3-hydroxybutanoic acid], the IC50 lay within 0.6 to 10 nM.

In the case of `Cc1cc(CNC[C@@H](O)CC(=O)O)c(OCc2cccnc2)cc1OCc1cccc(-c2ccc3c(c2)OCCO3)c1C` [Example 1278, (S)-4-((4-((3-(2,3-dihydrobenzo[b][1,4]dioxin-6-yl)-2-methylbenzyl)oxy)-5-methyl-2-(pyridin-3-ylmethoxy)benzyl)amino)-3-hydroxybutanoic acid], the IC50 lay within 0.6 to 10 nM.

Turning to `CCc1cc(CN[C@](C)(CO)C(=O)O)c(OCc2cccc(C#N)c2)cc1OCc1cccc(-c2ccc3c(c2)OCCO3)c1C` [Example 1291, (R)-2-(2-(3-cyanobenzyloxy)-4-(3-(2,3-dihydrobenzo[b][1,4]dioxin-6-yl)-2-methylbenzyloxy)-5-ethylbenzylamino)-3-hydroxy-2-methylpropanoic acid], the IC50 was 0.6 to 10 nM.

For `Cc1c(COc2ccc(CN3CCCC[C@H]3C(=O)O)c(OCc3cccc(C#N)c3)c2Cl)cccc1-c1ccc2c(c1)OCCO2` [Example 1236, (S)-1-(3-chloro-2-(3-cyanobenzyloxy)-4-(3-(2,3-dihydrobenzo[b][1,4]dioxin-6-yl)-2-methylbenzyloxy)benzyl)piperidine-2-carboxylic acid], the IC50 was in the range of 100 to 20000 nM.

Take `CC(=O)NCCNCc1cc(C)c(OCc2cccc(-c3ccc4c(c3)OCCO4)c2C)cc1OCCCCC#N` [Example 1294, N-(2-(2-(4-cyanobutoxy)-4-(3-(2,3-dihydrobenzo[b][1,4]dioxin-6-yl)-2-methylbenzyloxy)-5-methylbenzylamino)ethyl)acetamide]: the IC50 lay within 10 to 100 nM.

In the case of `C=Cc1cc(CN2CCCC[C@H]2C(=O)O)c(OCc2cccc(C#N)c2)cc1OCc1cccc(-c2ccc3c(c2)OCCO3)c1C` [Example 1293, (S)-1-(2-(3-cyanobenzyloxy)-4-(3-(2,3-dihydrobenzo[b][1,4]dioxin-6-yl) -2-methylbenzyloxy)-5-vinylbenzyl)piperidine-2-carboxylic acid], the IC50 lay within 0.6 to 10 nM.

In the case of `Cc1c(COc2cc(OCc3cncc(C#N)c3)c(CN3CCCC[C@H]3C(=O)NS(=O)(=O)N3CCN(C)CC3)cc2Cl)cccc1-c1ccc2c(c1)OCCO2` [Example 1262, (S)-1-(5-chloro-2-((5-cyanopyridin-3-yl)methoxy)-4-((3-(2,3-dihydrobenzo[b][1,4]dioxin-6-yl)-2-methylbenzyl)oxy)benzyl)-N-((4-methylpiperazin-1-yl)sulfonyl)piperidine-2-carboxamide], the IC50 is 10 to 100 nM.

In the case of `CC(=O)NCCNCc1ccc(OCc2cccc(-c3ccccc3)c2C)cc1OCc1cccc(Oc2ccccc2F)c1` [Example 1077, N-(2-((2-((3-(2-fluorophenoxyl)benzyl)oxy)-4-((2-methyl-[1,1′-biphenyl]-3-yl)methoxy)benzyl)amino)ethyl)acetamide], the IC50 was 100 to 20000 nM.

With `COc1cc(OCc2cccc(-c3ccc4c(c3)OCCO4)c2C)cc(OCc2cccc(C#N)c2)c1CN[C@@](C)(CO)C(=O)O` [Example 1142, (S)-2-((2-((3-cyanobenzyl)oxy)-4-((3-(2,3-dihydrobenzo[b][1,4]dioxin-6-yl)-2-methylbenzyl)oxy)-6-methoxybenzyl)amino)-3-hydroxy-2-methylpropanoic acid], the IC50 lay within 0.6 to 10 nM.

For `Cc1c(COc2ccc(CNC[C@@H](O)CC(=O)O)c(OCc3ccc(F)c(C#N)c3)c2)cccc1-c1ccccc1` [Example 1331, (S)-4-((2-((3-cyano-4-fluorobenzyl)oxy)-4-((2-methyl-[1,1′-biphenyl]-3-yl)methoxy)benzyl)amino)-3-hydroxybutanoic acid], the IC50 is 0.6 to 10 nM.

As for `COC(=O)c1ccc(F)c(COc2cc(OCc3cccc(-c4ccccc4)c3C)ccc2CNCCNC(C)=O)c1` [Example 1103, methyl 3-((2-(((2-acetamidoethyl)amino)methyl)-5-((2-methyl-[1,1′-biphenyl]-3-yl)methoxy)phenoxy)methyl)-4-fluorobenzoate], the IC50 lay in the range of 100 to 20000 nM.

Take `Cc1c(COc2cc(OCc3cccc(C#N)c3)c(CN[C@@H](Cc3cn(Cc4ccccc4)cn3)C(=O)O)cc2Cl)cccc1-c1ccc2c(c1)OCCO2` [Example 1186, (S)-3-(1-benzyl-1H-imidazol-4-yl)-2-((5-chloro-2-((3-cyanobenzyl)oxy)-4-((3-(2,3-dihydrobenzo[b][1,4]dioxin-6-yl)-2-methylbenzyl)oxy)benzyl)amino)propanoic acid]: the IC50 lay in the range of 0.6 to 10 nM.

Take `Cc1cc(CN[C@](C)(CO)C(=O)O)c(OCc2cncc(C#N)c2)cc1OCc1cccc(-c2ccc3c(c2)OCCO3)c1C` [Example 1287, (R)-2-(2-((5-cyanopyridin-3-yl)methoxy)-4-(3-(2,3-dihydrobenzo[b][1,4]dioxin-6-yl)-2-methylbenzyloxy)-5-methylbenzylamino)-3-hydroxy-2-methylpropanoic acid]: the IC50 lay in the range of 0.6 to 10 nM.

Take `Cc1c(COc2cc(OCc3cccc(C#N)c3)c(CN[C@@H](CC(=O)O)C(=O)O)cc2Cl)cccc1-c1ccc2c(c1)OCCO2` [Example 1158, (S)-2-((5-chloro-2-((3-cyanobenzyl)oxy)-4-((3-(2,3-dihydrobenzo[b][1,4]dioxin-6-yl)-2-methylbenzyl)oxy)benzyl)amino)succinic acid]: the IC50 was in the range of 0.6 to 10 nM.
